According to patent publication US20150105252A1, “SUBSTITUTED PYRAZOLES AS HERBICIDES” (E I DU PONT DE NEMOURS AND COMPANY, priority 2013, published 2015):

Key:
mustard, wild [1] = assay: Test D postemergence; format: in vivo, Sinapis arvensis; conditions: scale 0 to 100
Summary of the method: (§1)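 Visual 0-100 rating (100 = complete control) against untreated plants, made 14 to 21 days after treatment in a controlled environment. Compounds, formulated with surfactant in non-phytotoxic solvent, were applied either to seeds just sown in silt loam or to 1- to 4-leaf plants (2 to 18 cm) grown in peat-based medium.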

oat, wild = assay: Test D preemergence; format: in vivo, Avena fatua; conditions: for Plant response rating, Oat, Wild: Preemergence, scale 0 to 100
Summary of the method: as §1

ryegrass, Italian = assay: Test D postemergence; format: in vivo, Lolium multiflorum; conditions: scale 0 to 100
Summary of the method: as §1

foxtail, green [2] = assay: Test D postemergence; format: in vivo, Setaria viridis; conditions: scale 0 to 100
Summary of the method: as §1

field violet = assay: Test D postemergence; format: in vivo, Viola arvensis; conditions: scale 0 to 100
Summary of the method: as §1

radish, wild [3] = assay: Test D postemergence; format: in vivo, Raphanus raphanistrum; conditions: scale 0 to 100
Summary of the method: as §1

blackgrass = assay: Test D preemergence; format: in vivo, Alopecurus myosuroides; conditions: for Plant response rating, Blackgrass: Preemergence, scale 0 to 100
From the text: (§2) Seeds of plant species selected from bluegrass (annual bluegrass, Poa annua), blackgrass (Alopecurus myosuroides), canarygrass (littleseed canarygrass, Phalaris minor), chickweed (common chickweed, Stellaria media), galium (catchweed bedstraw, Galium aparine), bromegrass, downy (downy bromegrass, Bromus tectorum), field poppy (Papaver rhoeas), field violet (Viola arvensis), foxtail, green (green foxtail, Setaria viridis), deadnettle (henbit deadnettle, Lamium amplexicaule), ryegrass, Italian (Italian ryegrass, Lolium multiflorum), kochia (Kochia scoparia), lambsquarters (Chenopodium album), oilseed rape (Brassica napus), pigweed (redroot pigweed, Amaranthus retroflexus), chamomile (scentless chamomile, Matricaria inodora), speedwell (bird's-eye speedwell, Veronica persica), barley, spring (spring barley, Hordeum vulgare), wheat, spring (spring wheat, Triticum aestivum), buckwheat, wild (wild buckwheat, Polygonum convolvulus), mustard, wild (wild mustard, Sinapis arvensis), oat, wild (wild oat, Avena fatua), radish, wild (wild radish, Raphanus raphanistrum), windgrass (Apera spica-venti), Russian thistle (Salsola kali), barley, winter (winter barley, Hordeum vulgare), and wheat, winter (winter wheat, Triticum aestivum) were planted into a silt loam soil and treated preemergence with test chemicals formulated in a non-phytotoxic solvent mixture which included a surfactant.
(§3) At the same time, these species were planted in pots containing Redi-Earth® planting medium (Scotts Company, 14111 Scottslawn Road, Marysville, Ohio 43041) comprising spaghnum peat moss, vermiculite, wetting agent and starter nutrients and treated with postemergence applications of the test chemicals formulated in the same manner. Plants ranged in height from 2 to 18 cm (1- to 4-leaf stage). Treated plants and controls were maintained in a controlled growth environment for 14 to 21 days after which time all species were compared to controls and visually evaluated. Plant response ratings, summarized in Table D, are based on a scale of 0 to 100 where 0 is no effect and 100 is complete control. A dash (-) response means no test result.

wheat, spring = assay: Test D postemergence; format: in vivo, Triticum aestivum; conditions: scale 0 to 100
From the text: as §2, §3

wheat, winter = assay: Test D postemergence; format: in vivo, Triticum aestivum; conditions: scale 0 to 100
From the text: as §2, §3

barley, spring = assay: Test D preemergence; format: in vivo, Hordeum vulgare; conditions: for Plant response rating, Barley, Spring: Preemergence, scale 0 to 100
From the text: as §2, §3

barley, winter = assay: Test D preemergence; format: in vivo, Hordeum vulgare; conditions: for Plant response rating, Barley, Winter: Preemergence, scale 0 to 100
From the text: as §2, §3

chickweed = assay: Test D postemergence; format: in vivo, Stellaria media; conditions: scale 0 to 100
Summary of the method: as §1

mustard, wild [4] = assay: Test D preemergence; format: in vivo, Sinapis arvensis; conditions: for Plant response rating, Mustard, Wild: Preemergence, scale 0 to 100
Summary of the method: as §1

galium = assay: Test D postemergence; format: in vivo, Galium aparine; conditions: scale 0 to 100
Summary of the method: as §1

deadnettle = assay: Test D preemergence; format: in vivo, Lamium amplexicaule; conditions: for Plant response rating, Deadnettle: Preemergence, scale 0 to 100
Summary of the method: as §1

canarygrass = assay: Test D preemergence; format: in vivo, Phalaris minor; conditions: for Plant response rating, Canarygrass: Preemergence, scale 0 to 100
Summary of the method: as §1

foxtail, green [5] = assay: Test D preemergence; format: in vivo, Setaria viridis; conditions: for Plant response rating, Foxtail, Green: Preemergence, scale 0 to 100
From the text: as §2, §3

pigweed = assay: Test D preemergence; format: in vivo, Amaranthus retroflexus; conditions: for Plant response rating, Pigweed: Preemergence, scale 0 to 100
Summary of the method: as §1

windgrass = assay: Test D postemergence; format: in vivo, Apera spica-venti; conditions: scale 0 to 100
Summary of the method: as §1

radish, wild [6] = assay: Test D preemergence; format: in vivo, Raphanus raphanistrum; conditions: for Plant response rating, Radish, Wild: Preemergence, scale 0 to 100
From the text: as §2, §3

[7] = 16 g ai/ha, taken as preemergence

## O=C(NC1CC1)c1cc(CCF)n(Cc2ccnc(C(F)(F)F)c2)n1 [Compound 176]
mustard, wild [1]; Postemergence, 16 g ai/ha
  Plant response rating, Mustard, Wild: 25
mustard, wild [1]; Postemergence, 31 g ai/ha
  Mustard, Wild plant response rating: 55
mustard, wild [1]; Postemergence, 125 g ai/ha
  Mustard, Wild plant response rating: 70
mustard, wild [1]; postemergence, 62 g ai/ha
  Mustard, Wild plant response rating: 55
oat, wild; [7]
  Plant response rating (scale 0 to 100), Oat, Wild: 0
oat, wild; 62 g ai/ha
  Plant response rating, Oat, Wild: 10
oat, wild; 125 g ai/ha
  Plant response rating, Oat, Wild: 40
ryegrass, Italian; Postemergence, 16 g ai/ha
  Plant response rating, Ryegrass, Italian: 5
ryegrass, Italian; Postemergence, 31 g ai/ha
  Ryegrass, Italian plant response rating: 5
ryegrass, Italian; Postemergence, 125 g ai/ha
  Ryegrass, Italian plant response rating: 10
ryegrass, Italian; postemergence, 62 g ai/ha
  Ryegrass, Italian plant response rating: 5
foxtail, green [2]; Postemergence, 16 g ai/ha
  Plant response rating, Foxtail, Green: 10
foxtail, green [2]; Postemergence, 31 g ai/ha
  Foxtail, Green plant response rating: 20
foxtail, green [2]; Postemergence, 125 g ai/ha
  Foxtail, Green plant response rating: 35
foxtail, green [2]; postemergence, 62 g ai/ha
  Foxtail, Green plant response rating: 20
Field violet; Postemergence, 16 g ai/ha
  Plant response rating, Field Violet: 35
Field violet; Postemergence, 31 g ai/ha
  Field Violet plant response rating: 50
Field violet; Postemergence, 125 g ai/ha
  Field Violet plant response rating: 70
Field violet; postemergence, 62 g ai/ha
  Field Violet plant response rating: 50
radish, wild [3]; Postemergence, 31 g ai/ha
  Radish, Wild plant response rating: 65
radish, wild [3]; Postemergence, 125 g ai/ha
  Radish, Wild plant response rating: 65
radish, wild [3]; postemergence, 62 g ai/ha
  Radish, Wild plant response rating: 65
blackgrass; [7]
  Plant response rating (scale 0 to 100), Blackgrass: 0
blackgrass; 31 g ai/ha
  Plant response rating, Blackgrass: 0
blackgrass; 62 g ai/ha
  Plant response rating, Blackgrass: 10
blackgrass; 125 g ai/ha
  Plant response rating, Blackgrass: 20
wheat, spring; Postemergence, 16 g ai/ha
  Plant response rating, Wheat, Spring: 0
wheat, spring; Postemergence, 31 g ai/ha
  Wheat, Spring plant response rating: 0
wheat, spring; Postemergence, 125 g ai/ha
  Wheat, Spring plant response rating: 0
wheat, spring; postemergence, 62 g ai/ha
  Wheat, Spring plant response rating: 0
wheat, winter; Postemergence, 16 g ai/ha
  Plant response rating, Wheat, Winter: 5
wheat, winter; Postemergence, 31 g ai/ha
  Wheat, Winter plant response rating: 5
wheat, winter; Postemergence, 125 g ai/ha
  Wheat, Winter plant response rating: 15
wheat, winter; postemergence, 62 g ai/ha
  Wheat, Winter plant response rating: 5
barley, spring; 16 g ai/ha, taken as preemergence, 0 = no effect, 100 = complete control
  Plant response rating (scale 0 to 100), Barley, Spring: 0
barley, spring; 31 g ai/ha
  Plant response rating, Barley, Spring: 0
barley, spring; 62 g ai/ha
  Plant response rating, Barley, Spring: 0
barley, spring; 125 g ai/ha
  Plant response rating, Barley, Spring: 0
barley, winter; [7]
  Plant response rating (scale 0 to 100), Barley, Winter: 0
barley, winter; 31 g ai/ha
  Plant response rating, Barley, Winter: 0
barley, winter; 62 g ai/ha
  Plant response rating, Barley, Winter: 0
barley, winter; 125 g ai/ha
  Plant response rating, Barley, Winter: 0
chickweed; Postemergence, 16 g ai/ha
  Plant response rating, Chickweed: 20
chickweed; Postemergence, 31 g ai/ha
  Chickweed plant response rating: 35
chickweed; Postemergence, 125 g ai/ha
  Chickweed plant response rating: 65
chickweed; postemergence, 62 g ai/ha
  Chickweed plant response rating: 35
mustard, wild [4]; [7]
  Plant response rating (scale 0 to 100), Mustard, Wild: 10
mustard, wild [4]; 62 g ai/ha
  Plant response rating, Mustard, Wild: 90
mustard, wild [4]; 125 g ai/ha
  Plant response rating, Mustard, Wild: 100
galium; Postemergence, 16 g ai/ha
  Plant response rating, Galium: 55
galium; Postemergence, 31 g ai/ha
  Galium plant response rating: 65
galium; Postemergence, 125 g ai/ha
  Galium plant response rating: 65
galium; postemergence, 62 g ai/ha
  Galium plant response rating: 65
deadnettle; [7]
  Plant response rating (scale 0 to 100), Deadnettle: 0
deadnettle; 31 g ai/ha
  Plant response rating, Deadnettle: 20
deadnettle; 62 g ai/ha
  Plant response rating, Deadnettle: 80
deadnettle; 125 g ai/ha
  Plant response rating, Deadnettle: 100
canarygrass; [7]
  Plant response rating (scale 0 to 100), Canarygrass: 0
canarygrass; 31 g ai/ha
  Plant response rating, Canarygrass: 5
canarygrass; 62 g ai/ha
  Plant response rating, Canarygrass: 25
canarygrass; 125 g ai/ha
  Plant response rating, Canarygrass: 35
foxtail, green [5]; [7]
  Plant response rating (scale 0 to 100), Foxtail, Green: 0
foxtail, green [5]; 62 g ai/ha
  Plant response rating, Foxtail, Green: 15
foxtail, green [5]; 125 g ai/ha
  Plant response rating, Foxtail, Green: 40
pigweed; [7]
  Plant response rating (scale 0 to 100), Pigweed: 10
pigweed; 62 g ai/ha
  Plant response rating, Pigweed: 40
pigweed; 125 g ai/ha
  Plant response rating, Pigweed: 100
windgrass; Postemergence, 16 g ai/ha
  Plant response rating, Windgrass: 5
windgrass; Postemergence, 31 g ai/ha
  Windgrass plant response rating: 15
windgrass; Postemergence, 125 g ai/ha
  Windgrass plant response rating: 25
windgrass; postemergence, 62 g ai/ha
  Windgrass plant response rating: 15
radish, wild [6]; [7]
  Plant response rating (scale 0 to 100), Radish, Wild: 15
radish, wild [6]; 62 g ai/ha
  Plant response rating, Radish, Wild: 75
radish, wild [6]; 125 g ai/ha
  Plant response rating, Radish, Wild: 100
